Measurements published in patent publication US20240116985A1, “STAPLED PEPTIDES AND METHODS THEREOF” (priority 2020, published 2024).

What was measured:
[1] = target: T1, beta-catenin/TCF4 engagement (Homo sapiens, UniProt P35222); experiment: Nano-BRET target engagement assay (B-cat-Halo & TCF4-Luc in HEK293 cells); assay type: cell-based; conditions: absolute IC50; read-out: NanoBRET Abs IC50
T1 construct: expressed in transfected cells; host or cells: HEK293
T1 sequence (P35222 1-781): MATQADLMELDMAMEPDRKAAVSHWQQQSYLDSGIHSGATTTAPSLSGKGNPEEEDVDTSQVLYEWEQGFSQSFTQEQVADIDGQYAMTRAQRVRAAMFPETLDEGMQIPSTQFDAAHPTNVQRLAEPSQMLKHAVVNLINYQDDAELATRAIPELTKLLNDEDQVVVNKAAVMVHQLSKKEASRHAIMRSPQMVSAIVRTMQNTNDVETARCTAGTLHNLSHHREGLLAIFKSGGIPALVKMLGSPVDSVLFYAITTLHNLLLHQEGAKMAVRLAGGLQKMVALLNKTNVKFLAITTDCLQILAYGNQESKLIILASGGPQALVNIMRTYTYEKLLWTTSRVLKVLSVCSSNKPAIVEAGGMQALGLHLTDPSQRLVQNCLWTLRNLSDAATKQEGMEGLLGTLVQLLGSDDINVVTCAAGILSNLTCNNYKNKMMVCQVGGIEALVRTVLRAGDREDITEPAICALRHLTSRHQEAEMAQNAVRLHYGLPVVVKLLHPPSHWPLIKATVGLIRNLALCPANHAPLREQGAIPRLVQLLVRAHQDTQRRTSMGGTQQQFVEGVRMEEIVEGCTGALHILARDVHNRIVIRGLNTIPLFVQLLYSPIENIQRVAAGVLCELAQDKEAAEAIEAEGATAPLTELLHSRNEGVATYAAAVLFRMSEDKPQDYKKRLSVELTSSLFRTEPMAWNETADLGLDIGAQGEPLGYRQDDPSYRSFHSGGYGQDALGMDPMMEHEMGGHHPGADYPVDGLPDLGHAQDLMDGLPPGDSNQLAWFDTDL

[2] = target: T2, full-length beta-Catenin (Uniprot ID P35222) (Homo sapiens, UniProt P35222); experiment: Fluorescence polarization IC50 (beta-catenin / 5FAM-TCF4 10-53 competition); assay type: binding; conditions: fluorescence polarization; read-out: beta-Catenin FP IC50
T2 construct: 10 nM full-length beta-Catenin (Uniprot ID P35222)
T2 sequence (P35222 1-781): T1 sequence (P35222 1-781)

Row | IC50 [1] [nM] | IC50 [2] [nM] | Compound
1 | 4600 | 8 | CC(=O)N1CCC[C@]12CC=CCCCC1(CCCC=CCCCOC(=O)N3CC[C@@](C(=O)N[C@@H](Cc4ccccc4C(F)(F)F)C(=O)N[C@@H](Cc4ccc5c(c4)CCC5)C(=O)N[C@@H](C)C(N)=O)(C3)NC(=O)[C@H](CC(C)C)NC(=O)[C@H](Cc3ccccc3)NC(=O)[C@H](C)NC(=O)[C@H](CCC(N)=O)NC(=O)[C@H](Cc3cccc(C(=O)O)c3)NC(=O)[C@H](CC(=O)O)NC1=O)NC(=O)[C@H](CC(C)(C)C)NC(=O)[C@H](CC(=O)O)NC2=O (stereo partly drawn) [I-2298, Ac-PL3-Asp-Npg-B5-Asp-3COOHF-Gln-Ala-Phe-Leu-PyrS2-2F3MeF-5IndA-Ala-NH2]
2 | 5200 | 7 | CCNC(=O)CC[C@H](NC(=O)[C@H](Cc1csc2ccccc12)NC(=O)[C@H](Cc1ccccc1C(F)(F)F)NC(=O)[C@]12CCN(C1)C(=O)OCCCC=CCCCC1(CCCC=CC[C@]3(CCCN3C(C)=O)C(=O)N[C@@H](CC(=O)O)C(=O)N[C@@H](CC(C)(C)C)C(=O)N1)C(=O)N[C@@H](CC(=O)O)C(=O)N[C@@H](Cc1cccc(C(=O)O)c1)C(=O)N[C@@H](CCC(=O)NCC)C(=O)N[C@@H](C)C(=O)N[C@@H](Cc1ccccc1)C(=O)N[C@@H](CC(C)C)C(=O)N2)C(N)=O (stereo partly drawn) [I-2299, Ac-PL3-Asp-Npg-B5-Asp-3COOHF-[NHEt]GlnR-Ala-Phe-Leu-PyrS2-2F3MeF-BztA-NHEt]GlnR-NH2]
3 | > 20000 | 5 | CNCCCCN(C)C(=O)CC[C@@H]1NC(=O)[C@H](Cc2cccc(C(=O)O)c2)NC(=O)[C@H](CC(=O)O)NC(=O)C2(CCCC=CCCCOC(=O)N3CC[C@@](C(=O)N[C@@H](Cc4ccsc4)C(=O)N[C@@H](Cc4csc5ccccc45)C(=O)N[C@@H](C)C(N)=O)(C3)NC(=O)[C@H](C(C)C)NC(=O)[C@H](Cc3ccccc3)NC(=O)[C@H](C)NC1=O)CCCC=CC[C@]1(CCCN1C(C)=O)C(=O)N[C@@H](CC(=O)O)C(=O)N[C@@H](CC(C)(C)C)C(=O)N2 (stereo partly drawn) [I-2301, Ac-PL3-Asp-Npg-B5-Asp-3COOHF-[Me2diaminobutane]GlnR-Ala-Phe-Val-PyrS2-3Thi-BztA-Ala-NH2]
4 | 2500 | 5 | CCNC(=O)CC[C@@H]1NC(=O)[C@H](Cc2cccc(C(=O)O)c2)NC(=O)[C@H](CC(=O)O)NC(=O)C2(CCCC=CCCCOC(=O)N3CC[C@@](C(=O)N[C@@H](Cc4ccsc4)C(=O)N[C@@H](Cc4csc5ccccc45)C(=O)N[C@@H](C)C(N)=O)(C3)NC(=O)[C@H](C(C)C)NC(=O)[C@H](Cc3ccccc3)NC(=O)[C@H](C)NC1=O)CCCC=CC[C@]1(CCCN1C(C)=O)C(=O)N[C@@H](CC(=O)O)C(=O)N[C@@H](CC(C)(C)C)C(=O)N2 (stereo partly drawn) [I-2302, Ac-PL3-Asp-Npg-B5-Asp-3COOHF-[NHEt]GlnR-Ala-Phe-Val-PyrS2-3Thi-BztA-Ala-NH2]
5 | 1200 | 5 | CC(=O)N1CCC[C@]12CC=CCCCC1(CCCC=CCCCOC(=O)N3CC[C@@](C(=O)N[C@@H](Cc4ccsc4)C(=O)N[C@@H](Cc4csc5ccccc45)C(=O)N[C@@H](C)C(N)=O)(C3)NC(=O)[C@H](C(C)C)NC(=O)[C@H](Cc3ccccc3)NC(=O)[C@H](C)NC(=O)[C@H](CCC(=O)N(C)C)NC(=O)[C@H](Cc3cccc(C(=O)O)c3)NC(=O)[C@H](CC(=O)O)NC1=O)NC(=O)[C@H](CC(C)(C)C)NC(=O)[C@H](CC(=O)O)NC2=O (stereo partly drawn) [I-2303, Ac-PL3-Asp-Npg-B5-Asp-3COOHF-[NMe2]GlnR-Ala-Phe-Val-PyrS2-3Thi-BztA-Ala-NH2]
6 | > 20000 | 65 | CC(C)COC(=O)N1CCC[C@]12CC=CCCCC1(CCCC=CCCCOC(=O)N3CC[C@@](C(=O)N[C@@H](Cc4ccccc4Cl)C(=O)N[C@@H](Cc4csc5ccccc45)C(=O)N[C@@H](C)C(N)=O)(C3)NC(=O)[C@H](CC(C)C)NC(=O)[C@H](Cc3ccccc3)NC(=O)[C@H](C)NC(=O)[C@H](C)NC(=O)[C@H](Cc3cccc(C(=O)O)c3)NC(=O)[C@H](CC(=O)O)NC1=O)NC(=O)[C@H](CC(C)(C)C)NC(=O)[C@H](CC(=O)O)NC2=O (stereo partly drawn) [I-2305, CO2iBu-PL3-Asp-Npg-B5-Asp-3COOHF-Ala-Ala-Phe-Leu-PyrS2-2C1F-BztA-Ala-NH2]
7 | > 20000 | 45 | C[C@@H]1NC(=O)[C@H](C)NC(=O)[C@H](CC(=O)O)NC(=O)[C@H](CC(=O)O)NC(=O)C2(CCCC=CCCCOC(=O)N3CC[C@@](C(=O)N[C@@H](Cc4ccsc4)C(=O)N[C@@H](Cc4csc5ccccc45)C(=O)N[C@@H](CCC(N)=O)C(N)=O)(C3)NC(=O)[C@H](CC(N)=O)NC(=O)[C@H](Cc3ccccc3)NC1=O)CCCC=CCOc1cccc(c1)C(=O)N[C@@H](CC(=O)O)C(=O)N[C@@H](CC(C)(C)C)C(=O)N2 (stereo partly drawn) [I-2306, BzAm3Oallyl-Asp-Npg-B5-Asp-Asp-Ala-Ala-Phe-Asn-PyrS2-3Thi-BztA-Gln-NH2]
8 | 8900 | 16 | CC(=O)N1CCC[C@]12CC=CCCCC1(CCCC=CCCCOC(=O)N3CC[C@@](C(=O)N[C@@H](Cc4ccsc4)C(=O)N[C@@H](Cc4cccc(Br)c4)C(=O)N[C@@H](CCC(N)=O)C(N)=O)(C3)NC(=O)[C@H](CC(C)C)NC(=O)[C@H](Cc3ccccc3)NC(=O)[C@H](C)NC(=O)[C@H](C)NC(=O)[C@H](Cc3cccc(C(=O)O)c3)NC(=O)[C@H](CC(=O)O)NC1=O)NC(=O)[C@H](CC(C)(C)C)NC(=O)[C@H](CC(=O)O)NC2=O (stereo partly drawn) [I-2307, Ac-PL3-Asp-Npg-B5-Asp-3COOHF-Ala-Ala-Phe-Leu-PyrS2-3Thi-3BrF-Gln-NH2]
9 | 6000 | 8 | CC(=O)N1CCC[C@]12CC=CCCCC1(CCCC=CCCCOC(=O)N3CC[C@@](C(=O)N[C@@H](Cc4ccsc4)C(=O)N[C@@H](Cc4cccc(Br)c4)C(=O)N[C@@H](C)C(N)=O)(C3)NC(=O)[C@H](C(C)C)NC(=O)[C@H](Cc3ccccc3)NC(=O)[C@H](C)NC(=O)[C@H](CCC(N)=O)NC(=O)[C@H](Cc3cccc(C(=O)O)c3)NC(=O)[C@H](CC(=O)O)NC1=O)NC(=O)[C@H](CC(C)(C)C)NC(=O)[C@H](CC(=O)O)NC2=O (stereo partly drawn) [I-2308, Ac-PL3-Asp-Npg-B5-Asp-3COOHF-Gln-Ala-Phe-Val-PyrS2-3Thi-3BrF-Ala-NH2]
10 | 13700 | 17 | CC(=O)N1CCC[C@]12CC=CCCCC1(CCCC=CCCCOC(=O)N3CC[C@@](C(=O)N[C@@H](Cc4ccsc4)C(=O)N[C@@H](Cc4ccc5ccccc5c4)C(=O)N[C@@H](CCC(N)=O)C(N)=O)(C3)NC(=O)[C@H](CC(C)C)NC(=O)[C@H](Cc3ccccc3)NC(=O)[C@H](C)NC(=O)[C@H](C)NC(=O)[C@H](Cc3cccc(C(=O)O)c3)NC(=O)[C@H](CC(=O)O)NC1=O)NC(=O)[C@H](CC(C)(C)C)NC(=O)[C@H](CC(=O)O)NC2=O (stereo partly drawn) [I-2309, Ac-PL3-Asp-Npg-B5-Asp-3COOHF-Ala-Ala-Phe-Leu-PyrS2-3Thi-2NapA-Gln-NH2]
11 | 8900 | 18 | CC(=O)N1CCC[C@]12CC=CCCCC1(CCCC=CCCCOC(=O)N3CC[C@@](C(=O)N[C@@H](Cc4ccsc4)C(=O)N[C@@H](Cc4ccc5ccccc5c4)C(=O)N[C@@H](C)C(N)=O)(C3)NC(=O)[C@H](C(C)C)NC(=O)[C@H](Cc3ccccc3)NC(=O)[C@H](C)NC(=O)[C@H](CCC(N)=O)NC(=O)[C@H](Cc3cccc(C(=O)O)c3)NC(=O)[C@H](CC(=O)O)NC1=O)NC(=O)[C@H](CC(C)(C)C)NC(=O)[C@H](CC(=O)O)NC2=O (stereo partly drawn) [I-2310, Ac-PL3-Asp-Npg-B5-Asp-3COOHF-Gln-Ala-Phe-Val-PyrS2-3Thi-2NapA-Ala-NH2]
12 | 5200 | 5 | CC(=O)N1CCC[C@]12CC=CCCCC1(CCCC=CCCCOC(=O)N3CC[C@@](C(=O)N[C@@H](Cc4ccsc4)C(=O)N[C@H](C(=O)N[C@@H](CCC(N)=O)C(N)=O)[C@H](C)c4ccc5ccccc5c4)(C3)NC(=O)[C@H](CC(C)C)NC(=O)[C@H](Cc3ccccc3)NC(=O)[C@H](C)NC(=O)[C@H](C)NC(=O)[C@H](Cc3cccc(C(=O)O)c3)NC(=O)[C@H](CC(=O)O)NC1=O)NC(=O)[C@H](CC(C)(C)C)NC(=O)[C@H](CC(=O)O)NC2=O (stereo partly drawn) [I-2311, Ac-PL3-Asp-Npg-B5-Asp-3COOHF-Ala-Ala-Phe-Leu-PyrS2-3Thi-RbMe2NapA-Gln-NH2]
13 | 5200 | 5 | CC(=O)N1CCC[C@]12CC=CCCCC1(CCCC=CCCCOC(=O)N3CC[C@@](C(=O)N[C@@H](Cc4ccsc4)C(=O)N[C@H](C(=O)N[C@@H](C)C(N)=O)[C@H](C)c4ccc5ccccc5c4)(C3)NC(=O)[C@H](C(C)C)NC(=O)[C@H](Cc3ccccc3)NC(=O)[C@H](C)NC(=O)[C@H](CCC(N)=O)NC(=O)[C@H](Cc3cccc(C(=O)O)c3)NC(=O)[C@H](CC(=O)O)NC1=O)NC(=O)[C@H](CC(C)(C)C)NC(=O)[C@H](CC(=O)O)NC2=O (stereo partly drawn) [I-2312, Ac-PL3-Asp-Npg-B5-Asp-3COOHF-Gln-Ala-Phe-Val-PyrS2-3Thi-RbMe2NapA-Ala-NH2]
